According to patent US6603046B1, “Bis-aromatic a,β-unsaturated ketones” (Lica Pharmaceuticals A/S, priority 1992, dated 2003):
Values after ≈ are worked out from the molar mass of the structure shown. Read-outs that look alike come from different tables or passages of the source.

Legend:
L. major amastigotes = L. major amastigotes in human macrophages, Giemsa counting (Example 6); type: cell-based, Leishmania major
Procedure: Macrophage culture. The method used in this study was a modification of the one described by Berman et al. (1979). Human peripheral blood monocytes were obtained by Ficoll-Hypaque fractionation of blood from the Blood Bank, Rigshospitalet, Copenhagen, Denmark. Washed cells were suspended in medium RPMI-199 containing penicillin (50 U/ml), and streptomycin (50 μg/ml), 25 mM Hepes, 4 mM L-glutamine, and 10% heat inactivated fetal calf serum (56° C., 30 min). One milliliter of suspension containing 1×10^6 mononuclear cells was added to each well (16 mm in diameter, with one piece of cover glass in 12 mm diameter) of 24 wells of plastic culture trays (Nunc, Denmark). After 4 h and again after 3 days of incubation at 37° C. in 5% CO2-95% air, old medium was removed and washed with warm fresh medium three times, and then replaced with warm fresh medium.
Infection of macrophages with L. major promastigotes. After 6 days incubation the old medium was removed, and one milliliter of 1×10^7 4 days culture of L. major promastigotes (same promastigotes culture as in Example 4) was added to each well. After 24 h infection, macrophage cultures were washed three times with warm fresh medium and replenished with warm fresh medium with different concentrations of licochalcone A or medium alone. The medium was changed every 3 days. After infection, day 3 and day 6 a certain number of macrophage cultures were fixed with absolute methanol, stained with 5% Giemsa stain for 10 min, and examined by light microscopy (×1,000). The percentage of macrophages that contained amastigotes and the number of amastigotes present per infected macrophage were determined in replicate cultures by counting 200 cells per well.

human monocytes = assay: Zymosan-enhanced chemiluminescence, monocytes; type: cell-based; settings: Monocyte, read-out: percentage inhibition of chemiluminescence response to opsonized zymosan (mean ± SEM)
Procedure: Chemiluminescence. Monocytes were prepared from heparinized blood by metrizoate sodium-Ficoll (the same as lymphocyte proliferation). Polymorphonuclear leucocytes (PMN) were prepared from heparinized blood by dextran sedimentation and metrizoate sodium-Ficoll separation. Remaining erythrocytes were removed by hypotonic lysis. A zymosan-enhanced chemiluminescence assay was used. The assay was performed in a total volume of 5.5 ml at ambient temperature in glass scintillation vials. A Beckman L 8000 scintillation counter (placed under air-conditioned, thermostat controlled, 21±1° C. conditions) was used in the out-of-coincidence mode A 1.1 ml portion of PMN or monocyte suspension (1×10^6 cells per ml) was pre-incubated with 1.1 ml of various concentrations of licochalcone A for 30 min at 37° C. in a rotor at 20 rpm Luminol (5-amino-2,3-dihydro-1,4-phatalazinedione) obtained from Sigma Chemical Co., St Louis, Mo., U.S.A., was maintained as a stock solution of 10 mg/ml in NaOH (0.1 N) and diluted in Krebs-Ringer solution immediately before use. Each vial contained 5×10^5 pre-incubated PMN or monocyte, 4 mg of opsonized zymosan (Sigma), 50 μl of luminol solution, and 4.45 ml of Krebs-Ringer solution containing 5 mM glucose. The final concentration of luminol in the assay mixture was 5×10^−8m.

[1] = test system: chloroquine-sensitive P. falciparum 3D7A strain; assay: In vitro growth of P. falciparum 3D7A, 3H-hypoxanthine uptake (Example 15); type: cell-based, Plasmodium falciparum; settings: for Percentage inhibition of 3H-hypoxanthine uptake (mean ± SEM): title: percentage inhibition of 3H-hypoxanthine uptake
Sarcina lutea = assay: MIC, macrodilution (Example 17); type: cell-based; settings: Micrococcus luteus; 1 strain
[2] = test system: Staphylococcus aureus ATCC 25923; assay: MIC on control strain, aerobic and microaerophilic (Example 18); type: cell-based; settings: ATCC25923, 2 h, 2 hours incubation
Procedure: Staphylococcus aureus ATCC 25923 was used as control strain. The Helicobacter pylori strains were subcultured on chocolate agar plates with cysteine in a microaerophilic atmosphere at 37° C. for 72 hours and kept frozen at −80° C. until assayed.
The MIC rows were incubated under microaerophilic conditions for two hours. Hereafter aliquots of 10 μl were taken from all dilution steps and plated on chocolate agar with cysteine and incubated in a microaerophilic atmosphere for 72 hours at 37° C. The control strain Staphylococcus aureus was incubated both aerobically and microaerophilically at 37° C. for 24 hours. All plates were read by the Karber method.

M. bovis = type: cell-based; settings: n = 8
Strain = H37RV = assay: MIC with and without 10% human serum; type: cell-based; settings: for MIC: Mycobacterium tuberculosis, H37RV
[3] = Toxicity study in rats, peroral (Example 21); type: in vivo
Procedure: Study in rats. To 4 rats was administered one dose of 1000 mg per kg body weight perorally.

[4] = Plasma concentration and half live in mice after i.p. injection, HPLC (Example 25); type: in vivo
Procedure: Serum or plasma was diluted with one part of acetonitrile, left for 15 min at 4° C., and centrifugated for 3 min at 10,000 g. An aliquot of the supernatant was chromatographed at 37° C. by HPLC over Spherisorb ODS-2 (5 μm, 120×4.5 mm, Phase Separation LTD, UK) using acetonitrile aqueous acetic acid, 2%, (1:1) as an eluent, flow rate 1.5 ml/min, and UV detection (370 nm and 254 nm).
Standards. Standards containing 14.68 μg/ml, 4.90 μg/ml, and 0.45 μg/ml plasma were freshly prepared every day. The standards were wrapped in tinfoil to avoid light catalyzed isomerization.
A solution of 2,4dimethylnitrobenzene (0.20 μl/ml) was used as an internal standard.
Licochalcone A (10 mg/kg mouse≈200 μg/mouse) was injected i.p. into mice. The mice were sacrificed and bleeded after 15, 30, 60, 120, 240 and 480 min. The plasma was obtained by centrifugation. 100 μl of plasma was added to 100 μl of the solution of the internal standard and the mixture left for 30 min. The mixture was centrifuged for 5 min at 10,000 g and 20 μl of the clear supernatant was analyzed by HPLC (Example 23).

## C=CC(C)(C)c1cc(/C=C/C(=O)c2ccc(O)cc2)c(OC)cc1O [Licochalcone A, licochalcone A]
L. major amastigotes; 1 μg/ml, 3-day
  number of amastigotes/100 macrophages: 54
  number of infected macrophages/100 macrophages: 43
L. major amastigotes; 1 μg/ml, 6-day
  number of amastigotes/100 macrophages: 45/45/100
  number of infected macrophages/100 macrophages: 45/45/100
L. major amastigotes; 5 μg/ml, 3-day
  number of amastigotes/100 macrophages: 18
  number of infected macrophages/100 macrophages: 7
L. major amastigotes; 5 μg/ml, 6-day
  number of amastigotes/100 macrophages: 11
  number of infected macrophages/100 macrophages: 5
L. major amastigotes; 10 μg/ml, 3-day
  number of amastigotes/100 macrophages: 10
  number of infected macrophages/100 macrophages: 5
L. major amastigotes; 10 μg/ml, 6-day
  number of amastigotes/100 macrophages: 6
  number of infected macrophages/100 macrophages: 4
Human monocytes; 1 μg/ml
  inhibition at 1 µg/mL: 8.2 ± 3.3%
Human monocytes; 2 μg/ml
  inhibition at 2 µg/mL: 7.8 ± 6.5%
Human monocytes; 5 μg/ml
  inhibition at 5 µg/mL: 24.8 ± 5.3%
Human monocytes; 10 μg/ml
  inhibition at 10 µg/mL: 37.9 ± 3.1%
Human monocytes; 20 μg/ml
  inhibition at 20 µg/mL: 56.5 ± 3.8%
[1]; Plasmodium falciparum, read-out: concentration in which growth was retarded by 50%
  IC50: 0.5 to 1 µg/mL (≈ 1.48 to 2.96 µM)
[1]; 0.1 μg/ml
  Percentage inhibition of 3H-hypoxanthine uptake (mean ± SEM): 15.0 ± 3.0%
[1]; 0.5 μg/ml
  Percentage inhibition of 3H-hypoxanthine uptake (mean ± SEM): 39.0 ± 6.0%
[1]; 1 μg/ml
  Percentage inhibition of 3H-hypoxanthine uptake (mean ± SEM): 69.0 ± 4.0%
[1]; 5 μg/ml
  Percentage inhibition of 3H-hypoxanthine uptake (mean ± SEM): 98.0 ± 0.001%
[1]; 10 μg/ml
  Percentage inhibition of 3H-hypoxanthine uptake (mean ± SEM): 98.0 ± 0.0001%
Sarcina lutea
  MIC: 4 µg/mL (≈ 11.8 µM)
[2]; microaerophilic conditions
  MIC: > 500 µg/mL
[2]; normal atmosphere
  MIC: 4 µg/mL (≈ 11.8 µM)
M. bovis
  meanMIC: meanMIC = 15.7 μg/ml
  rangeMIC: rangeMIC = 10-20 μg/ml (n = 8)
Strain = H37RV
  increase of MIC when supplemented with 10% of serum: 8 fold
Strain = H37RV; read-out: MIC+serum
  MIC: 40 µg/mL (≈ 118 µM)
Strain = H37RV; read-out: MIC−serum
  MIC: 5 µg/mL (≈ 14.8 µM)
[3]; 4 rats, one dose of 1000 mg per kg perorally
  deaths within one week: None of the animals died
[3]; rats
  LD50 peroral: > 1000 mg per kg
[4]; 10 mg/kg i.p., after 120 min
  plasma concentration: below det. limit
[4]; 10 mg/kg i.p., after 240 min
  plasma concentration: below det. limit
[4]; 10 mg/kg i.p., after 480 min
  plasma concentration: below det. limit
[4]; HPLC
  metabolites in mouse plasma: Three metabolites have been detected
[4]; mouse, plasma, intraperitoneal, 10 mg/kg i.p., after 15 min
  concentration at 15 min: 1330 ng/mL
[4]; mouse, plasma, intraperitoneal, 10 mg/kg i.p., after 30 min
  concentration at 30 min: 280 ng/mL
[4]; mouse, plasma, intraperitoneal, 10 mg/kg i.p., after 60 min
  concentration at 60 min: 140 ng/mL
